Structures can show the parent of a compound that is named as a salt.
How the values were obtained:
Assay type in all cases: in vivo
Wheat [1] = experiment: Post-emergence test/outdoors (Example E, California), crop compatibility; settings: 42 g a.i./ha to 45 g a.i./ha, + SAS, outdoors, 7 tests
winter wheat [2] = experiment: Post emergence tests/outdoors (Example C, Germany and France), crop compatibility; settings: 42 g of a.i./ha to 45 g of a.i./ha, post-emergence (spring), outdoors, 1 to 8 weeks after the treatment, 439 tests
Procedure: Post Emergence Tests/outdoors Under outdoor conditions, the sodium salt of the compound of the formula (I) was tested in winter wheat in Germany and France against economically important weeds. The small-plot experiments were carried out on cultivated land under agricultural use, with cultivation and climate conditions which can be considered to be representative for the period of the trial. Areas with particularly extensive weed growth were chosen by way of preference. The active compound was applied by the post-emergence method (spring) across the area by the spray method, with an average droplet size. To produce a useful preparation of active compound, the active compound was formulated as 70 WP or 70 WG (70% w/w water-dispersible powder or granules) and applied with customary amounts of water. To assess the crop compatibility, from 1 to 8 weeks after the treatment, plant growth inhibitions or […] of the leaf area were assessed in % damage in comparison to the development of the untreated control. At different intervals after the treatment, the herbicidal activity was assessed as % reduction in comparison to the untreated control, based on the weed development. The figures denote: 0%=no damage of the crops or no herbicidal effect, 100%=total destruction of the crops or the weeds.

Phalaris paradoxa = experiment: Post-emergence test/outdoors (Example E, California); settings: 42 g a.i./ha to 45 g a.i./ha, + SAS, outdoors, irrigation wheat growing area, 8 tests
Lolium [3] = experiment: Pre-emergence test/greenhouse; settings: 30 g ai./ha, greenhouse, after three weeks
Procedure: (§1) Pre-emergence Test/greenhouse Solvent: 5 parts by weight of acetone Emulsifier: 1 part by weight of alkylaryl polyglycol ether To produce a suitable preparation of active compound, 1 part by weight of active compound is mixed with the stated amount of solvent, the stated amount of emulsifier is added and the concentrate is diluted with water to the desired concentration. Seeds of the test plants are sown in normal soil. After about 24 hours, the soil is sprayed with the preparation of active compound such that the particular amount of active compound desired is applied per unit area. The concentration of the spray liquor is chosen so that the particular amount of active compound desired is applied in 500 litres of water per hectare. After three weeks, the degree of damage to the plants is tested in % damage in comparison to the development of the untreated control. The figures denote: 0% no effect (like untreated control) 100%=total destruction

Alopecurus [4] = experiment: Pre-emergence test/greenhouse; settings: greenhouse, after three weeks
Procedure: as §1

Setaria = experiment: Pre-emergence test/greenhouse; settings: 30 g ai./ha, greenhouse, after three weeks
Procedure: as §1

Wheat [5] = experiment: Pre-emergence test/greenhouse; settings: greenhouse; for degree of damage to the plants (% damage in comparison to the untreated control): Wheat, after three weeks
Procedure: as §1

Amaranthus = experiment: Pre-emergence test/greenhouse; settings: 15 g ai./ha, greenhouse, after three weeks
Procedure: as §1

Avena [6] = experiment: Pre-emergence test/greenhouse; settings: greenhouse, after three weeks
Procedure: as §1

Poa = experiment: Pre-emergence test/greenhouse; settings: 15 g ai./ha, greenhouse, after three weeks
Procedure: as §1

Sinapis = experiment: Pre-emergence test/greenhouse; settings: 15 g ai./ha, greenhouse, after three weeks
Procedure: as §1

Agropyron [7] = experiment: Pre-emergence test/greenhouse; settings: 15 g ai./ha, greenhouse, after three weeks
Procedure: as §1

Bromus [8] = experiment: Pre-emergence test/greenhouse; settings: greenhouse, after three weeks
Procedure: as §1

Lolium [9] = experiment: Post-emergence test/greenhouse; settings: 60 g ai./ha, greenhouse, after three weeks
Procedure: (§2) Post-emergence Test/greenhouse Solvent: 5 parts by weight of acetone Emulsifier: 1 part by weight of alkylaryl polyglycol ether To produce a suitable preparation of active compound, 1 part by weight of active compound is mixed with the stated amount of solvent, the stated amount of emulsifier is added and the concentrate is diluted with water to the desired concentration. Test plants which have a height of 5-15 cm are sprayed with the preparation of active compound such that the particular amounts of active compound desired are applied per unit area. The concentration of the spray liquor is chosen so that the particular amounts of active compound desired are applied in 500 l of water/ha. After three weeks, the degree of damage to the plants is assessed in % damage in comparison to the development of the untreated control. The figures denote: 0%=no effect (like untreated control) 100% total destruction

Alopecurus [10] = experiment: Post-emergence test/greenhouse; settings: 60 g ai./ha, greenhouse, after three weeks
Procedure: as §2

Wheat [11] = experiment: Post-emergence test/greenhouse; settings: greenhouse
Procedure: as §2

Avena [12] = experiment: Post-emergence test/greenhouse; settings: 60 g ai./ha, greenhouse, after three weeks
Procedure: as §2

Agropyron [13] = experiment: Post-emergence test/greenhouse; settings: 60 g ai./ha, greenhouse, after three weeks
Procedure: as §2

Bromus [14] = experiment: Post-emergence test/greenhouse; settings: 60 g ai./ha, greenhouse, after three weeks
Procedure: as §2

Phalaris minor = experiment: Post-emergence test/outdoors (Example E, California); settings: 42 g a.i./ha to 45 g a.i./ha, + SAS, outdoors, irrigation wheat growing area, 2 tests
winter wheat [15] = experiment: Post-emergence tests/outdoors (Example D, USA), crop compatibility; settings: 42 g a.i./ha to 45 g a.i./ha, post-emergence (autumn), outdoors, with surface-active substances (SAS), 78 tests
Procedure: The active compound was applied by the post-emergence method (spring) across the area by the spray method, with an average droplet size. To produce a useful preparation of active compound, the active compound was formulated as 70 WP or 70 WG (70% w/w water-dispersible powder or granules) and applied with customary amounts of water. To assess the crop compatibility, from 1 to 8 weeks after the treatment, plant growth inhibitions or […] of the leaf area were assessed in % damage in comparison to the development of the untreated control. At different intervals after the treatment, the herbicidal activity was assessed as % reduction in comparison to the untreated control, based on the weed development. The figures denote: 0%=no damage of the crops or no herbicidal effect, 100%=total destruction of the crops or the weeds. Post-emergence Tests/outdoors The sodium salt of the compound of the formula (I) was tested under outdoor conditions in the main cultivation areas of winter wheat in the USA (Pacific Northwest, North Central Area, Central Plains) against economically important weeds. The design, the practice and the evaluation of the experiments corresponded to Example C. The active compound was applied in autumn. Wetting of the plants was improved by addition of commercial surface-active substances (SAS) in the concentrations recommended by the respective manufacturer.

CCCOc1nn(C(=O)NS(=O)(=O)c2ccccc2C(=O)OC)c(=O)n1C [(I)-Na-salt, 2-(2-methoxycarbonyl-phenylsulphonylaminocarbonyl)-4-methyl-5-propoxy-2,4-dihydro-3H-1,2,4-triazol-3-one]
Damage to the crop (wheat) (Wheat [1]): 5%
Damage to the crop (wheat) (winter wheat [2]): 2%
herbicidal effect (%) (Phalaris paradoxa): 99%
degree of damage to the plants (% damage in comparison to the untreated control) (Lolium [3]): 80%
degree of damage to the plants (% damage in comparison to the untreated control) (Alopecurus [4]; 15 g ai./ha): 95%
degree of damage to the plants (% damage in comparison to the untreated control) (Alopecurus [4]; 30 g ai./ha): 95%
degree of damage to the plants (% damage in comparison to the untreated control) (Setaria): 90%
degree of damage to the plants (% damage in comparison to the untreated control) (Wheat [5]; 15 g ai./ha): 0%
degree of damage to the plants (% damage in comparison to the untreated control) (Wheat [5]; 30 g ai./ha): 0%
compatibility with crop plants (wheat), in words (Wheat [5]; sodium salt of (I) at 15 g/ha to 60 g/ha): very good compatibility
degree of damage to the plants (% damage in comparison to the untreated control) (Amaranthus): 95%
degree of damage to the plants (% damage in comparison to the untreated control) (Avena [6]; 15 g ai./ha): 80%
degree of damage to the plants (% damage in comparison to the untreated control) (Avena [6]; 30 g ai./ha): 90%
degree of damage to the plants (% damage in comparison to the untreated control) (Poa): 90%
degree of damage to the plants (% damage in comparison to the untreated control) (Sinapis): 90%
degree of damage to the plants (% damage in comparison to the untreated control) (Agropyron [7]): 90%
degree of damage to the plants (% damage in comparison to the untreated control) (Bromus [8]; 15 g ai./ha): 90%
degree of damage to the plants (% damage in comparison to the untreated control) (Bromus [8]; 30 g ai./ha): 90%
degree of damage to the plants (% damage in comparison to the untreated control) (Lolium [9]): 80%
degree of damage to the plants (% damage in comparison to the untreated control) (Alopecurus [10]): 90%
degree of damage to the plants (% damage in comparison to the untreated control) (Wheat [11]; Wheat, 60 g ai./ha, after three weeks): 0%
compatibility with crop plants (wheat), in words (Wheat [11]; sodium salt of (I) at 60 g/ha): very good compatibility
degree of damage to the plants (% damage in comparison to the untreated control) (Avena [12]): 80%
degree of damage to the plants (% damage in comparison to the untreated control) (Agropyron [13]): 100%
degree of damage to the plants (% damage in comparison to the untreated control) (Bromus [14]): 95%
herbicidal effect (%) (Phalaris minor): 93%
Damage to the crop (wheat) (winter wheat [15]): 2%

— US6395684B1, “Selective herbicides based on a substituted phenyl sulfonyl amino carbonyl triazolinone” (Bayer Aktiengesellschaft, priority 1998, dated 2002)
